One data set can be described thus: Luminescence lifetimes. The data set is classed as physicochemical. From the text: (§1) Quantitative parameters, i.e. absolute quantum yields under excitation at 320 nm to 340 nm and luminescence lifetimes, have been determined for the Ga8Yb2(Shi)8(MIP)4 metallacrown and Ga8Ln2 G:−0.5 polyamidoamine MC-cored dendrimers (Ln=Yb, Tb, Sm) (Table 1).
(§2) In Table 1, luminescence lifetimes (λex=355 nm) and quantum yields (λex=340 nm for samples in the solid state and λex=320 for solutions) of the Ga8Yb2(Shi)8(MIP)4 dimeric metallacrown, Ga8Ln2 G:−0.5 polyamidoamine MC-cored dendrimers (Ln=Yb, Tb, Sm) (i.e., Ga8Ln2(Shi)8(MIP)4(G:−0.5 PAMAM)4) and Ga8Yb2 G:0.5 polyamidoamine MC-cored dendrimers at room temperature (2σ values are given between parentheses) are presented. For bi-exponetial luminescence lifetimes results, values after the colon indicate the fraction contribution of the individual lifetimes to the experimental luminescence decay.
(§3) Quantitative parameters, i.e. absolute quantum yields under excitation at 350 nm (for samples in the solid state) or 325 nm (for samples in solution) and luminescence lifetimes (under excitation at 355 nm), have been determined for each of the Ga8Y2(shi)8(mip)4 G:0 polyamidoamine MC-cored dendrimer, the Ga8Y2(shi)8(mip)4 G:0 AA-capped polyamidoamine MC-cored dendrimer, and the Ga8Y2(shi)8(mip)4 G:0.5 polyamidoamine MC-cored dendrimer at room temperature. In Table 2, the 2σ values are given between parentheses. For bi-exponetial luminescence lifetimes results, values after the colon indicate the fraction contribution of the individual lifetimes to the experimental luminescence decay.

The nature of data set [1]: Absolute quantum yields. Type of data set: physicochemical.
Text: as §1, §2, §3

A further data set relates to HeLa cells. The data set can be described thus: Epifluorescence imaging with HeLa cells. The data set is classed as cell-based. The note with it: 3 hours, λex 377 nm band pass 50 nm. Here is the method: FIG. 21 depicts epifluorescence microscopy images (reproduced in black and white) obtained on HeLa cells, (Top) after incubation with a 30 μM solution of Ga8Tb2(shi)8(MIP)4 G:−0.5 polyamidoamine MC-cored dendrimer for 3 hours (λex: 377 nm, band pass 50 nm; λem: 536 nm, band pass 40 nm, 1 s of exposure) and (Bottom) untreated (control) cells. A: brightfield, B: visible emission, and C: merged image (Objective 63×);
FIG. 22 depicts epifluorescence microscopy images (reproduced in black and white) obtained on HeLa cells, (Top) after incubation with a 100 μM solution of the Ga8Yb2(shi)8(MIP)4 G:−0.5 polyamidoamine MC-cored dendrimer for 3 hours (λex: 377 nm, band pass 50 nm; λem: long pass 805 nm, 40 s of exposure), and (Bottom) untreated (control) cells. A: brightfield, B: visible emission, and C: merged image (Objective 63×);
To test if synthesized MC-cored dendrimers could be used under biological conditions and maintain the luminescence signal, HeLa cells were incubated with the Tb(III) and Yb(III) G:−0.5 polyamidoamine MC-cored dendrimers (Ga8Tb2 G:−0.5 polyamidoamine MC-cored dendrimers and Ga8Yb2 G:−0.5 polyamidoamine MC-cored dendrimers). The metallacrown complexes coated the surfaces of the cells. For a control, HeLa cells were not incubated and were imaged in a similar manner. […]

Data set [2] in a line: Absolute quantum yields. The data set is classed as physicochemical. The note with it: aqueous solution.
A short description of data set [3]: Solution state (UV-Vis) absorbance. Type of data set: physicochemical. The note with it: approximately 2 μM to 3 μM methanol solutions; room temperature. The procedure:
The solution state (UV-Vis) absorbance of the Sm-shi8 and the Sm-e8, Sm-m4, Smbt8 and Sm-te4 analogs was measured in approximately 2 μM to 3 μM methanol solutions at room temperature. The absorbance spectrum for each analog shown in FIG. 29 has a π-π* transition band with λmax of approximately 315 nm (31,750 cm^−1) or 335 nm (29,850 cm^−1). This π-π* transition was red-shifted by close to 25 nm from Sm-shi8 in the case of Sm-e8 and Sm-bt8.

The mark [4] stands for this setting: 200 μM H2O/DMSO (4%), λex=355 nm, room temperature (Table 1).
The mark [5] stands for this setting: Solid, λex=355 nm, room temperature, 2σ in parentheses (Table 1).
[6] abbreviates: 200 μM H2O/DMSO (4%), λex=320 nm, room temperature (Table 1).
The mark [7] stands for this setting: Solid, λex=340 nm, room temperature (Table 1).
Where [8] appears, read: 200 μM H2O/DMSO (4%), λex=355 nm, room temperature (Table 1), longer lifetime component.
Setting [9] is: 200 μM H2O/DMSO (4%), λex=355 nm, room temperature (Table 1), shorter lifetime component.
Setting [10] is: H2O/DMSO (96/4), 1 mg/mL, excitation at 355 nm, room temperature (Table 2).
Where [11] appears, read: Solid, excitation at 355 nm, room temperature (Table 2).
Where [12] appears, read: H2O/DMSO (96/4), 1 mg/mL, excitation at 325 nm, room temperature (Table 2).
The mark [13] stands for this setting: Solid, excitation at 350 nm, room temperature (Table 2).

A value given as a limit tells only on which side of the number the result lay.

As for “Ga8Sm2(shi)8(MIP)4G:−0.5 PAMAM metallacrown (MC)-cored dendrimer [Ga8Sm2 Gen: −0.5]”, the Lifetime in the data set “Luminescence lifetimes” (setting [4]) was 96.2(9) μs; in the data set “Luminescence lifetimes” (setting [5]), 112(1) μs. Moreover, the Quantum yield is 1.1(1) % in the data set “Absolute quantum yields [1]” (setting [6]) and 2.31(2) % in the data set “Absolute quantum yields [1]” (setting [7]).

In the case of “Ga8Tb2(shi)8(MIP)4 G:−0.5 polyamidoamine MC-cored dendrimer [Ga8Tb2 Gen: −0.5]”, the “fraction contribution of the individual lifetime to the experimental luminescence decay” value in the data set “Luminescence lifetimes” (setting [8]) is on record as 89.7(8) %; in “Luminescence lifetimes” (setting [9]), 10.3(8) %. Moreover, the Quantum yield in “Absolute quantum yields [1]” (setting [6]) was 6.1(3) %; in “Absolute quantum yields [1]” (setting [7]), 11.9(3) %. Also, the “luminescence signal on epifluorescence microscope, visible range” value in the data set on HeLa cells (30 μM, 536 nm emission, 40 nm filter, 1 s exposure) is reported as “good quality signals were observed in the visible range”.

For Ga8Yb2(Shi)8(MIP)4, the “fraction contribution of the individual lifetime to the experimental luminescence decay” value is given as 97.5(3) % in the data set “Luminescence lifetimes” (setting [8]) and 2.5(3) % in the data set “Luminescence lifetimes” (setting [9]). The Quantum yield is on record as 9.01(7) · 10^−2% in the data set “Absolute quantum yields [1]” (setting [6]) and 0.126(3) % in “Absolute quantum yields [1]” (setting [7]).

On to “Ga8Yb2(shi)8(MIP)4 G:0 polyamidoamine MC-cored dendrimer [Ga8Yb2 G:0]”, for which the Lifetime was 9.93(8) μs in the data set “Luminescence lifetimes” (setting [10]) and 36.3(1) μs in the data set “Luminescence lifetimes” (setting [11]). Also, the Quantum yield in the data set “Absolute quantum yields [1]” (setting [12]) is recorded as 0.53(1) %; in “Absolute quantum yields [1]” (setting [13]), 2.40(2) %.

For “Ga8Yb2(shi)8(MIP)4 G:0.5 polyamidoamine MC-cored dendrimer [Ga8Yb2 Gen: 0.5]”, the values for the Lifetime in “Luminescence lifetimes” (setting [10]), in “Luminescence lifetimes” (setting [11]) and in the data set “Luminescence lifetimes” (setting [5]) were 11.1(1) μs, 46.3(1) μs and 28.2(3) μs, respectively. Further, the Quantum yield in the data set “Absolute quantum yields [1]” (setting [12]) is listed as 0.63(1) %; in “Absolute quantum yields [1]” (setting [13]) it was 2.83(9) %; in the data set “Absolute quantum yields [1]” (setting [7]), 1.82(1) %.

In the case of “Ga8Yb2(shi)8(MIP)4 G:−0.5 polyamidoamine MC-cored dendrimer [Ga8Yb2 Gen: −0.5]”, the Lifetime in “Luminescence lifetimes” (setting [4]) was 13.(1) μs; in “Luminescence lifetimes” (setting [5]), 35.3(6) μs. The Quantum yield in “Absolute quantum yields [1]” (setting [6]) is reported as 0.868(9) %; in “Absolute quantum yields [1]” (200 μM H2O/DMSO (4%), λex=320 nm, room temperature (Table 1), listed as Ga8Yb2 G:−0.5 polyamidoamine MC-cored dendrimer), 0.868%; in “Absolute quantum yields [1]” (setting [7]) it was 3.24(9) %. Moreover, the “luminescence signal on epifluorescence microscope, NIR range” value with HeLa cells (100 μM, >805 nm emission, 40 s exposure) is listed as “good quality signals were observed in the NIR range”. Also, the “improvement of quantum yield compared to YnZn16 MCs assembled with pyrazinehydroxamic acid” value in “Absolute quantum yields [2]” is listed as greater than 77 times.

As to Sm2Ga8(eshi)8(ip)4 [Sm-e8], the “red-shift of π-π* transition band from Sm-shi8” value in data set [3] is roughly 25 nm.

With Sm2Ga8(shi)8(miph)4 [Sm-m4], in data set [3], the “red-shift of π-π* transition band from Sm-shi8” value was “no notable redshift”.

These data come from US10927221B2, “Dendrimeric metallacrowns” (THE REGENTS OF THE UNIVERSITY OF MICHIGAN, priority 2018, dated 2021).
